Assay [1] deals with T1, human albumin (Homo sapiens, UniProt P02768).
T1 construct: purchased Octapharma (IP) SPRL Albunorm 20
Nature of the assay: Inhibition of albumin denaturation (anti-inflammatory activity). Format: biochemical. The following applies: heat-induced denaturation. As to the method: Anti-denaturation assay was conducted as described by Kumari et al. with slight modifications. The reaction mixture consisted of 0.5 mL of 5% aqueous solution of human albumin (Albunorm 20, Octapharma (IP) SPRL, 1070 Anderlecht, Belgium) and 0.2 mL of the tested compound, dissolved in DMSO, at different concentrations (20–500 μg/mL). The samples were incubated at 37 °C for 15 min. After that, 2.5 mL phosphate-buffered saline (pH 6.3) was added to each tube and the samples were heated for 30 min to 80 °C and then cooled for 5 min. Turbidity was measured spectrophotometrically at 660 nm (Cary 60 UV-Vis, Agilent Technologies, Santa Clara, CA, USA). For the blank sample, a mixture of 2.5 mL buffer and 0.2 mL DMSO was used instead of the compounds, while the product control test lacked the compounds’ concentration having 0.5 mL serum albumin, and 2.5 mL buffer only. The percentage inhibition of protein denaturation was calculated as follows:Percentage of inhibition denaturation = (Absorbancecontrol − Absorbancesample) / Absorbancecontrol × 100
The control represents 100% protein denaturation.
Commercially available over-the-counter non-steroidal anti-inflammatory drugs diclofenac sodium and acetylsalicylic acid were used for comparison. Their anti-inflammatory effect was determined as a percentage of inhibition of albumin denaturation following the same protocol as for the novel compounds.

Assay [2] deals with gastric smooth muscle preparations (SMPs) from Wistar rats. Nature of the assay: Ex vivo smooth muscle relaxant activity. Also noted: species or system rat. The conditions noted are these: for Tonic relaxation: 5 × 10^−5 mol/L, SM pre-contracted with 1 × 10^−7 mol/L CCh. From the text: The utilization of an SM preparation from the corpus of a rat stomach that had been pharmacologically pre-contracted was the main goal of our work. The excitatory neurotransmitter acetylcholine (ACh) in the enteric nervous system is appropriate for this purpose. It affects the digestive system by increasing the amplitude of digestive contractions and peristalsis in the stomach. We evaluated the viability of the SM using their stimulatory impact. Via muscarinic (M2 and M3) receptors, ACh and its counterpart cholinergic agonist carbachol (CCh, carbamylcholine) cause excitatory motor responses in GI SM cells. Unlike ACh, which breaks down quickly, CCh has a long-lasting response. Therefore, we used CCh to start the induced muscle contraction. […] A persistent, prolonged tonic contraction that is brought on by the extracellular inflow of Ca^2+ into SM cells occurs next. The relaxation effects of the tested compounds 3 and 4a–e were investigated by cumulative addition of the tested substances in concentrations of 1 × 10^−7, 5 × 10^−7, 1 × 10^−6, 5 × 10^−6, 1 × 10^−5, 5 × 10^−5, and 1 × 10^−4 mol/L at the plateau of the CCh-induced contraction. In order to measure relaxation, the percent decrease in contractile tension from the 1 × 10^−7 mol/L CCh-induced maximum was used. All subsequent reactions to chemicals were reported as a percentage of the submaximal SM contractile responses elicited by CCh, which were taken as 100% values and expressed as a base value for all subsequent responses (Figure 10A). Results were presented as mean ± SD.
SMPs with dimensions 1.0–1.5 mm wide and 10–12 mm long were obtained from adult male Wistar rats weighing about 270 g. […]
The pH of the solution was measured before each experiment using a pH-meter HI5521 (Hanna Instruments, Smithfield, RI, USA). […]
Experiments were performed to investigate the cumulative dose-dependent relaxation effects of compounds 3 and 4a–e on gastric SMPs, pre-contracted with CCh (1 × 10^−^7 mol/L). The CA of the SMPs and the changes in substance-evoked reactions were detected isometrically. […]

T1 sequence (P02768 25-609): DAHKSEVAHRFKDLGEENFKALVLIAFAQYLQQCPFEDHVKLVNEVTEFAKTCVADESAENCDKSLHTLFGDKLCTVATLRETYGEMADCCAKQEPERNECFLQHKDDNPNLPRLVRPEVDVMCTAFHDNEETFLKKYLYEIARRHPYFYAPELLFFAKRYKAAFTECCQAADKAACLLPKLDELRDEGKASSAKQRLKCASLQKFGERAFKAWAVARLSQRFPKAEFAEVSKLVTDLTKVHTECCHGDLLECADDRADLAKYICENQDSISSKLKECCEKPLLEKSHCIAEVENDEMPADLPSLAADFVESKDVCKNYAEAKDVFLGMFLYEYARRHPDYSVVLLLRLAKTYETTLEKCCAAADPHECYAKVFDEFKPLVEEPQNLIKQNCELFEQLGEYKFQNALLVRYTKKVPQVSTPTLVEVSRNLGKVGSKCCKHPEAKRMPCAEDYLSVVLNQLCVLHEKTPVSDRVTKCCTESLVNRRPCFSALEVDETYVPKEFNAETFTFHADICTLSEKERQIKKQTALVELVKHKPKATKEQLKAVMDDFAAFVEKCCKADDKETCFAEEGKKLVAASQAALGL

As for `O=C(Nc1ccccc1C(=O)NCCc1cccc(Cl)c1)c1ccccc1` [Compound 4b, 2-benzamido-N-(3-chlorophenethyl)benzamide], inhibition in assay [1] was half-maximal at 1.95 mM (IC50).
Compound `CC(=O)Nc1ccccc1C(=O)NCCc1cccc(Cl)c1` [Compound 4a, 2-acetamido-N-(3-chlorophenethyl)benzamide] gave a Tonic relaxation in assay [2] of 52%.
In turn, `Nc1ccccc1C(=O)NCCc1cccc(Cl)c1` [Compound 3, 2-amino-N-(3-chlorophenethyl)benzamide] had a 50% inhibitory concentration (IC50) in assay [1] of 2.4 mM. The compound further yielded a Tonic relaxation in assay [2] of 59%. Besides, in assay [2] (submaximal concentration of 5 × 10^−5 mol/L), the “effect on amplitude of spontaneous contractions” value is listed as “more than 50%”.

The term IC50 denotes the midpoint of a concentration-inhibition curve. Lower therefore signals inhibition by little substance.

Values taken from article PMC10530836, “Synthesis, Molecular Docking, and Biological Evaluation of Novel Anthranilic Acid Hybrid and Its Diamides as Antispasmodics” (International Journal of Molecular Sciences, 2023).
